In patent US10301320B2, “Compositions and methods of modulating 15-PGDH activity” (CASE WESTERN RESERVE UNIVERSITY, priority 2012, dated 2019):
“Also recorded” adds a separate entry of the source.

Tests used:
[1] = Hepatocyte stability; type: in vitro ADME; conditions: result in words
Method: (§1) Time to inhibition refers to the time needed to inhibit the generation of NADH by 15-PGDH from the moment with drug is added into the reaction mix. Delta™ refers to the shift in melting temperature of recombinant 15-PGDH in the presence of drug (with cofactor NADH also present). Concentration of Full Cell Line Reporter Induction refers to the concentration of drug that needs to be added to reporter cell line to achieve maximal induction of the 15-PGDH-luciferase gene fusion reporter cassette, as measured by luciferase assays. Hepatocyte stability refers to the half-life of compound in the presence of hepatocytes in culture. Toxicity refers to the concentration of compound needed to decrease cell numbers in a cell culture assay.

[2] = test system: FVB male mice; assay: Dextran sodium sulfate (DSS) induced colitis; type: in vivo
[3] = test system: C57BL/6J and FVB mice; assay: Liver regeneration after partial hepatectomy; type: in vivo
[4] = test system: C57BL/6J mice; assay: Survival following acetaminophen (Tylenol) overdose; type: in vivo; conditions: for Number of mice surviving: Table 10, first dose immediately after Tylenol;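 on all read-outs here: control mice received vehicle only, given once or twice per day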
[5] = test system: 15-PGDH-luciferase fusion reporter in V9m, LS174T and V503 cell lines; assay: 15-PGDH-luciferase fusion gene reporter induction in three colon cancer cell lines (stated jointly); type: cell-based
[6] = test system: 15-PGDH mRNA in colon cancer cell lines; assay: 15-PGDH mRNA levels by real-time PCR; type: cell-based
Text: In these studies parental cell lines (not containing the 15-PGDH-luciferase reporter) are employed.

[7] = test system: A549 cells; assay: Cellular toxicity on A549 cells (CellTiter-Glo, cell numbers); type: cell-based
Method: as §1
FIGS. 38(A-C) show assays of cellular toxicity on A549 cells at 24 hours of 15-PGDH inhibitors as assayed by CellTiter-Glo measurement.
FIGS. 84(A-C) show at left (84A) activity in lowering PGE2 levels in media of A549 cells that are stimulated to produce PGE2 by treatment with IL1-beta.

In the case of `CCCC[S+]([O-])c1sc2nc(-c3cccs3)cc(-c3ccccc3)c2c1N` (centres unmarked) [SW033291, 2-(butylsulfinyl)-4-phenyl-6-(thiophen-2-yl)thieno[2,3-b]pyridin-3-amine], the Hepatocyte stability [1] was “Stable > couple hrs”, the “Body weight versus control, in words” value ([2]; 5 mg/kg IP twice daily) was “greater weight at all time points; also recorded: greater body weight” and the Ulcer formation ([2]; colonoscopy days 8, 11, 15) was “prevents two-thirds of ulcer formation”. For the same compound, the “Colon length versus control, in words” value ([2]; day 22) was “greater colon lengths”, the “Hepatic mitosis, in words” value ([3]; C57BL/6J, 5 mg/kg IP daily) was “significantly increased hepatic mitosis versus controls on days 3 and 4” and the “Serum ALT levels” value ([3]; one mouse, 5 mg/kg IP twice daily) was “lower”. The “BrdU positive cells in liver, in words” value ([3]; post-operative day 2) was “clear increase in numbers of BrdU positive cells”, the “Mice surviving at 120 hours” value ([4]; 5 mg/kg IP bid beginning 3 hours prior to acetaminophen, 6 doses) was 3 of 6 and the “Mice surviving at 120 hours” value ([4]; 5 mg/kg IP bid beginning 48 hours prior to acetaminophen, 9 doses) was 10 of 12. For the same compound, the “Number of mice surviving” value ([4]; 1 dose daily, 16 hr) was 6, the “Number of mice surviving” value ([4]; 1 dose daily, 24 hrs) was 6 and the “Number of mice surviving” value ([4]; 2 dose daily, 16 hr) was 6. The “Number of mice surviving” value ([4]; 2 dose daily, 24 hrs) was 6, the “Number of mice surviving” value ([4]; 2 dose daily, 48 hrs) was 3 and the “Number of mice surviving” value ([4]; 2 dose daily, 64 hrs) was 3. For the same compound, the “Number of mice surviving” value ([4]; 2 dose daily, 72 hrs) was 3, the “Number of mice surviving” value ([4]; 2 dose daily, 88 hr) was 3 and the “Number of mice surviving” value ([4]; 2 dose daily, 96 hr) was 3. The “Number of mice surviving” value ([4]; 2 dose daily, 112 hr) was 3, the “Number of mice surviving” value ([4]; 2 dose daily, 120 hr) was 3 and the “Survival (number of mice)” value ([4]; Table 11, bid beginning 48 hours prior to acetaminophen, 16 hr) was 12. For the same compound, the “Survival (number of mice)” value ([4]; Table 11, bid beginning 48 hours prior to acetaminophen, 24 hrs) was 12, the “Survival (number of mice)” value ([4]; Table 11, bid beginning 48 hours prior to acetaminophen, 40 hrs) was 11 and the “Survival (number of mice)” value ([4]; Table 11, bid beginning 48 hours prior to acetaminophen, 48 hrs) was 10. The “Survival (number of mice)” value ([4]; Table 11, bid beginning 48 hours prior to acetaminophen, 64 hrs) was 10, the “Survival (number of mice)” value ([4]; Table 11, bid beginning 48 hours prior to acetaminophen, 72 hrs) was 10 and the “Survival (number of mice)” value ([4]; Table 11, bid beginning 48 hours prior to acetaminophen, 88 hr) was 10. For the same compound, the “Survival (number of mice)” value ([4]; Table 11, bid beginning 48 hours prior to acetaminophen, 96 hr) was 10, the “Survival (number of mice)” value ([4]; Table 11, bid beginning 48 hours prior to acetaminophen, 112 hr) was 10 and the “Survival (number of mice)” value ([4]; Table 11, bid beginning 48 hours prior to acetaminophen, 120 hr) was 10. The “Survival (number of mice)” value ([4]; Table 12, bid beginning 3 hours prior to acetaminophen, 16 hr) was 6, the “Survival (number of mice)” value ([4]; Table 12, bid beginning 3 hours prior to acetaminophen, 24 hrs) was 5 and the “Survival (number of mice)” value ([4]; Table 12, bid beginning 3 hours prior to acetaminophen, 48 hrs) was 3. The “Survival (number of mice)” value ([4]; Table 12, bid beginning 3 hours prior to acetaminophen, 64 hrs) was 3, the “Survival (number of mice)” value ([4]; Table 12, bid beginning 3 hours prior to acetaminophen, 72 hrs) was 3 and the “Survival (number of mice)” value ([4]; Table 12, bid beginning 3 hours prior to acetaminophen, 88 hr) was 3. For the same compound, the “Survival (number of mice)” value ([4]; Table 12, bid beginning 3 hours prior to acetaminophen, 96 hr) was 3, the “Survival (number of mice)” value ([4]; Table 12, bid beginning 3 hours prior to acetaminophen, 112 hr) was 3 and the “Survival (number of mice)” value ([4]; Table 12, bid beginning 3 hours prior to acetaminophen, 120 hr) was 3. For the same compound, the “Induction of 15-PGDH-luciferase reporter, in words” value [5] was “increase luciferase activity”, the “15-PGDH mRNA levels” value ([6]; V503 cells) was “slight increase in 15-PGDH mRNA” and the “15-PGDH mRNA levels” value ([6]; treated colon cancer cell lines, real-time PCR) was “do not in general alter 15-PGDH mRNA levels”. For the same compound, the “Toxicity, CellTiter-Glo” value ([7]; 24 hours, up to 10 uM in FIG. 38) was “No effect on CellTitre-Glo levels” and the Toxicity ([7]; concentration needed to decrease cell numbers in a cell culture assay) was greater than 10 µM.
